{"source": "ChEMBL document CHEMBL1153832", "about": "“Identification and characterization of UK-201844, a novel inhibitor that interferes with human immunodeficiency virus type 1 gp160 processing” (Antimicrob Agents Chemother, 2007)", "key": {"[1]": {"tested_on": "Human immunodeficiency virus 1", "assay": "Antiviral activity against HIV1 NL4-3 transfected in HEK293 cells assessed as inhibition of infectious virus production at 0.12 uM", "type": "functional", "set-up": "scale not given: the % may be the effect or the level left"}, "[2]": {"tested_on": "Human immunodeficiency virus 1", "assay": "Inhibition of HIV1 NL4-3 proteins incorporation into virions transfected in HEK293 cells assessed as aberrant Env protein at 0.12 uM by Western blot", "type": "functional, organism-based"}, "[3]": {"tested_on": "Human immunodeficiency virus 1", "assay": "Antiviral activity against HIV1 bearing HIV1 NL4-3 envelope infected in human HeLa CD4 cells coexpressing LTR/beta-Gal gene assessed as reduction in virus-induced beta-galactosidase reporter gene activity after 72 hrs by single-cycle infection assay", "type": "functional, organism-based", "details": "Human immunodeficiency virus 1, HeLa"}, "[4]": {"tested_on": "Human immunodeficiency virus 1", "assay": "Antiviral activity against HIV1 bearing VSV envelope infected in human HeLa CD4 cells coexpressing LTR/beta-Gal gene assessed as reduction in virus-induced beta-galactosidase reporter gene activity after 72 hrs by single-cycle infection assay", "type": "functional, organism-based", "details": "Human immunodeficiency virus 1, HeLa"}, "[5]": {"tested_on": "Human immunodeficiency virus 1", "assay": "Antiviral activity against HIV1 bearing VSV envelope infected in human MT2 cells assessed as inhibition of VSV-envelope packed virions at 0.12 uM after 72 hrs by virus production assay relative to control", "type": "functional", "details": "Human immunodeficiency virus 1, MT2, 72 h"}, "[6]": {"tested_on": "Human immunodeficiency virus 1", "assay": "Inhibition of HIV1 NL4-3 proteins incorporation into virions transfected in HEK293 cells assessed as unprocessed gp160 Env protein at 0.12 uM by Western blot", "type": "functional, organism-based"}, "[7]": {"tested_on": "Human immunodeficiency virus 1", "assay": "Antiviral activity against HIV1 bearing HIV1 NL4-3 envelope infected in human MT2 cells assessed as inhibition of HIV-envelope packed virions at 0.12 uM after 72 hrs by virus production assay relative to control", "type": "functional", "details": "Human immunodeficiency virus 1, MT2, 72 h"}}, "note": "Activity calls are given as the source filed them. No cut-off for these calls is given here."}
{"smiles": "Cc1c(O)cccc1C(=O)N[C@@H](CSc1ccccc1)[C@H](O)CN1C[C@H]2CCCC[C@H]2C[C@H]1C(=O)NC(C)(C)C", "note": "[NELFINAVIR]", "values": [{"measurement": "Activity", "setting": "[1]", "value": 94, "unit": "%"}, {"measurement": "Activity", "setting": "[2]", "value": "Active"}, {"measurement": "EC50", "setting": "[3]", "value": "> 1000", "unit": "nM"}, {"measurement": "EC50", "setting": "[4]", "value": "> 1000", "unit": "nM"}, {"measurement": "inhibition in vivo at 0.12 µM", "setting": "[5]", "value": 97, "unit": "%"}, {"measurement": "Activity", "setting": "[6]", "value": "Active"}, {"measurement": "inhibition in vivo at 0.12 µM", "setting": "[7]", "value": 88, "unit": "%"}]}
